Laboratory results published in US7163923B2, “Peptide deformylase activated prodrugs” (Celmed Oncology (USA), Inc., priority 2001, dated 2007).
≈ marks a conversion by molar mass, not a printed value. Like-named read-outs stand apart in the source and are kept apart here.

What was measured:
Experiment in all cases: MIC susceptibility testing (modified NCCLS, 384-well)
Assay type in all cases: cell-based
[1] = tested on: E. cloacae; details: Enterobacter cloacae
Protocol: (§1) The NCCLS (National Committee for Clinical Laboratory Standards), method to determine MIC's of antimicrobial compounds is modified for high-throughput screening. All stocks of tested compounds are prepared in either water or in DMSO depending on solubility. At the highest concentration, DMSO content should not exceed 0.5%. Briefly, twenty 2-fold serial dilutions of test compounds from the highest concentration are made in a 384-well microtiter plate. […] Bacterial growth is determined by the increase of optical density at 600 nm using a microplate reader (Tecan SpectraFluor Plus).

[2] = tested on: P. aeruginosa; details: Pseudomonas aeruginosa
Protocol: as §1

[3] = tested on: K. pneumoniae; details: Klebsiella pneumoniae
Protocol: as §1

[4] = tested on: E. faecalis; details: Enterococcus faecalis
Protocol: as §1

[5] = tested on: H. influenzae; details: Haemophilus influenzae
Protocol: as §1

[6] = tested on: M. catarrhalis
Protocol: as §1

[7] = tested on: E. aerogenes; details: Klebsiella aerogenes
Protocol: as §1

[8] = tested on: S. epidermidis; details: Staphylococcus epidermidis
Protocol: as §1

## CSCCC(NC=O)C(=O)NC(CC(C)C)C(=O)Oc1cc(Cl)ccc1Oc1ccc(Cl)cc1Cl (centres unmarked) [NB2046, 2-(2-formylamino-4-methylsulfanyl-butyrylamino)-4-methyl-pentanoic acid 5-chloro-2-(2,4-dichloro-phenoxy)-phenyl ester]
[1]; ATCC23355, E. cloacae ATCC 23355, Exp. #2, Table 3
  MIC: 0.5 µg/mL (≈ 0.89 µM)
[1]; ATCC23355, E. cloacae ATCC 23355, Exp. #2, Table 4
  MIC: 1 µg/mL (≈ 1.78 µM)
[2]; ATCC21726, P. aeruginosa ATCC 21726, Exp. #1, Table 4
  MIC: > 64 µg/mL
[2]; ATCC21726, P. aeruginosa ATCC 21726, Exp. #2, Table 4
  MIC: ≥ 64 µg/mL
[2]; ATCC29872, P. aeruginosa ATCC 29872, Exp. #1, Table 4
  MIC: > 64 µg/mL
[2]; ATCC29872, P. aeruginosa ATCC 29872, Exp. #2, Table 4
  MIC: ≥ 64 µg/mL
[3]; ATCC51503, K. pneumoniae ATCC 51503, Exp. #1, Table 3
  MIC: 8 µg/mL (≈ 14.2 µM)
[3]; ATCC51503, K. pneumoniae ATCC 51503, Exp. #1, Table 4
  MIC: 4 µg/mL (≈ 7.12 µM)
[3]; ATCC51503, K. pneumoniae ATCC 51503, Exp. #2, Table 3
  MIC: 8 µg/mL (≈ 14.2 µM)
[3]; ATCC51503, K. pneumoniae ATCC 51503, Exp. #2, Table 4
  MIC: 8 µg/mL (≈ 14.2 µM)
[3]; ATCC51504, K. pneumoniae ATCC 51504, Exp. #1, Table 3
  MIC: 1 µg/mL (≈ 1.78 µM)
[3]; ATCC51504, K. pneumoniae ATCC 51504, Exp. #2, Table 3
  MIC: 2 µg/mL (≈ 3.56 µM)
[3]; ATCC700721, K. pneumoniae ATCC 700721, Exp. #1, Table 3
  MIC: 2 µg/mL (≈ 3.56 µM)
[3]; ATCC700721, K. pneumoniae ATCC 700721, Exp. #1, Table 4
  MIC: 4 µg/mL (≈ 7.12 µM)
[3]; ATCC700721, K. pneumoniae ATCC 700721, Exp. #2, Table 3
  MIC: 2 µg/mL (≈ 3.56 µM)
[3]; ATCC700721, K. pneumoniae ATCC 700721, Exp. #2, Table 4
  MIC: 8 µg/mL (≈ 14.2 µM)
[4]; ATCC49757, E. faecalis ATCC 49757, Exp. #1, Table 4
  MIC: 64 µg/mL (≈ 114 µM)
[4]; ATCC49757, E. faecalis ATCC 49757, Exp. #2, Table 4
  MIC: 32 µg/mL (≈ 56.9 µM)
[4]; ATCC700802, E. faecalis ATCC 700802, Exp. #1, Table 4
  MIC: 32 µg/mL (≈ 56.9 µM)
[4]; ATCC700802, E. faecalis ATCC 700802, Exp. #2, Table 4
  MIC: 32 µg/mL (≈ 56.9 µM)
[5]; ATCC33533, H. influenzae ATCC 33533, Exp. #1, Table 4
  MIC: 64 µg/mL (≈ 114 µM)
[5]; ATCC33533, H. influenzae ATCC 33533, Exp. #2, Table 4
  MIC: ≥ 64 µg/mL
[6]; M. catarrhalis ATCC 43627, Exp. #2, Table 3
  MIC: ≦0.125 μg/ml
[6]; M. catarrhalis ATCC 43628, Exp. #2, Table 3
  MIC: ≦0.125 μg/ml
[6]; M. catarrhalis ATCC 49265, Exp. #2, Table 3
  MIC: ≦0.125 μg/ml
[6]; M. catarrhalis ATCC 51584, Exp. #2, Table 3
  MIC: ≦0.125 μg/ml
[6]; Moraxella catarrhalis, ATCC43627, M. catarrhalis ATCC 43627, Exp. #1, Table 3, read-out: MIC
  MIC: ≤ 0.125 µg/mL
[6]; Moraxella catarrhalis, ATCC43628, M. catarrhalis ATCC 43628, Exp. #1, Table 3, read-out: MIC
  MIC: ≤ 0.125 µg/mL
[6]; Moraxella catarrhalis, ATCC49265, M. catarrhalis ATCC 49265, Exp. #1, Table 3, read-out: MIC
  MIC: ≤ 0.125 µg/mL
[6]; Moraxella catarrhalis, ATCC51584, M. catarrhalis ATCC 51584, Exp. #1, Table 3, read-out: MIC
  MIC: ≤ 0.125 µg/mL
[7]; ATCC13048, E. aerogenes ATCC 13048, Exp. #1, Table 3
  MIC: 1 µg/mL (≈ 1.78 µM)
[7]; ATCC13048, E. aerogenes ATCC 13048, Exp. #2, Table 3
  MIC: 1 µg/mL (≈ 1.78 µM)
[7]; ATCC29009, E. aerogenes ATCC 29009, Exp. #1, Table 3
  MIC: 0.25 µg/mL (≈ 0.445 µM)
[7]; ATCC29009, E. aerogenes ATCC 29009, Exp. #2, Table 3
  MIC: ≤ 0.125 µg/mL
[7]; ATCC29751, E. aerogenes ATCC 29751, Exp. #1, Table 3
  MIC: 2 µg/mL (≈ 3.56 µM)
[7]; ATCC29751, E. aerogenes ATCC 29751, Exp. #2, Table 3
  MIC: 1 µg/mL (≈ 1.78 µM)
[7]; ATCC35028, E. aerogenes ATCC 35028, Exp. #1, Table 3
  MIC: 4 µg/mL (≈ 7.12 µM)
[7]; ATCC35028, E. aerogenes ATCC 35028, Exp. #1, Table 4
  MIC: 32 µg/mL (≈ 56.9 µM)
[7]; ATCC35028, E. aerogenes ATCC 35028, Exp. #2, Table 3
  MIC: 2 µg/mL (≈ 3.56 µM)
[7]; ATCC35028, E. aerogenes ATCC 35028, Exp. #2, Table 4
  MIC: 16 µg/mL (≈ 28.5 µM)
[8]; ATCC27626, S. epidermidis ATCC 27626, Exp. #1, Table 3
  MIC: ≤ 0.125 µg/mL
[8]; ATCC27626, S. epidermidis ATCC 27626, Exp. #2, Table 3
  MIC: ≤ 0.125 µg/mL
[8]; ATCC700565, S. epidermidis ATCC 700565, Exp. #1, Table 3
  MIC: 2 µg/mL (≈ 3.56 µM)
[8]; ATCC700565, S. epidermidis ATCC 700565, Exp. #2, Table 3
  MIC: 2 µg/mL (≈ 3.56 µM)
[8]; ATCC700566, S. epidermidis ATCC 700566, Exp. #1, Table 3
  MIC: ≤ 0.125 µg/mL
[8]; ATCC700566, S. epidermidis ATCC 700566, Exp. #2, Table 3
  MIC: ≤ 0.125 µg/mL
[8]; ATCC700578, S. epidermidis ATCC 700578, Exp. #1, Table 3
  MIC: 0.5 µg/mL (≈ 0.89 µM)
[8]; ATCC700578, S. epidermidis ATCC 700578, Exp. #2, Table 3
  MIC: 0.25 µg/mL (≈ 0.445 µM)
[8]; ATCC700583, S. epidermidis ATCC 700583, Exp. #1, Table 3
  MIC: ≤ 0.125 µg/mL
[8]; ATCC700583, S. epidermidis ATCC 700583, Exp. #2, Table 3
  MIC: ≤ 0.125 µg/mL
